Here are results for 16 compounds from paper PMC8147275, “Design, Synthesis, and Molecular Docking Study of New Tyrosyl-DNA Phosphodiesterase 1 (TDP1) Inhibitors Combining Resin Acids and Adamantane Moieties” (Pharmaceuticals, 2021).

The target in data set [1] is T1, TDP1 (Homo sapiens, UniProt Q9NUW8).
T1 construct: inferred from the pET 16B vector and purification on Ni-chelating resin; made in house
Particulars: Figure 2, known inhibitor; cited from earlier work.

The target of data set [2] is T1, TDP1. Briefly: TDP1 assay: recombinant TDP1 with fluorescent biosensor (FAM/BHQ1), cell-free. The class given is biochemical. To be noted: recombinant TDP1 1.5 nM, biosensor 50 nM, 26 °C. The method, then: The primary screening of the inhibitory activities against TDP1 was performed using an in vitro cell-free system involving the recombinant TDP1 and a fluorescent reporter probe as previously described.
The recombinant TDP1 was purified to homogeneity by chromatography on Ni-chelating resin and phosphocellulose P11 as previously described, using plasmid pET 16B-TDP1, kindly provided by Dr. K.W. Caldecott (University of Sussex, United Kingdom). The TDP1 activity measurements were carried out as described. Briefly, TDP1-biosensor with fluorofore (FAM) at the 5′-end and a fluorescence quencher (BHQ1) at the 3′-end at a final concentration of 50 nM were incubated in a 200 μL volume that contained TDP1 buffer (50 mM Tris-HCl pH 8.0, 50 mM NaCl, and 7 mM β-mercaptoethanol) supplemented with purified 1.5 nM TDP1 and various concentrations of inhibitor. Fluorescence measurements (Ex485/Em520 nm) were carried out during the linear phase of the reaction (from 0 to 8 min for TDP1) every 55 sec. The reactions were incubated at a constant temperature of 26 °C in a POLARstar OPTIMA fluorimeter (BMG LABTECH, GmbH). The influence of compounds was evaluated by comparing the fluorescence increase rate in the presence of compounds with that of DMSO control wells. The data were imported into the MARS Data Analysis 2.0 program (BMG LABTECH), and the IC50 values (the concentration of a compound required to reduce the enzyme activity by 50%) were calculated.

Data set [3] concerns T98G glioma cells. The data set is described as follows: Cytotoxicity (MTT) alone and in combination with temozolomide. The class given is cell-based. The method, then: (§1) Since we used the T98G glioblastoma cell line for the first time for our experiments, we first attempted to perform the cytotoxicity study in a range of concentrations from 10 to 100 µM, as we did previously with the TDP1 inhibitory compounds when working with the other cell lines. However, the cytotoxicity at 50 and 100 µM of our compounds turned out to be rather high in the T98G cell line. We then measured the cytotoxicity of individual TDP1 inhibitors at 2.5, 5, 10, and 25 µM. The studied compounds were prepared as 50 mM stock solutions in DMSO and added to T98G glioma cells at 2.5 µM to 25 µM concentrations, either individually or in combination with 1000 or 2000 µM of TMZ. […] They were therefore discarded from the later cytotoxicity studies.
Individual TDP1 inhibitors were prepared as 50 mM stock solutions in DMSO and were added to the cells at 2.5, 5, 10, or 25 μM. Temozolomide was prepared as 200 mM stock solution in DMSO and was added at 1 mM or 2 mM concentrations, either alone or in combination with TDP1 inhibitors. T98G and SNB19 glioma cells were maintained in DMem/F12 medium supplemented with 10% foetal bovine serum, l-glutamine, and penicillin/streptomycin and were split at 10,000 cells/well into the 96-well plates for cytotoxicity experiments. The drugs or drug combinations were incubated with cells for 72 h, then the MTT reagent (3-(4,5-dimethylthiazol-2-yl)-2,5-diphenyltetrazolium bromide) was added for 4 h. The produced purple formazan dye reporting the activity of cellular oxireductases was dissolved overnight in 10% solution of acidified SDS and the absorbance was measured using a Tecan plate reader. Each concentration of individual substance or each drug combination was tested in triplicate. The data obtained were processed using MS Excel software and presented as histogram plots.

The nature of data set [4]: Solubility observations (stock solutions, solvents, cell growth medium). The class given is physicochemical. Particulars: light microscopy. The method, then:
as §1

SMILES strings stand for the structures. “Also recorded” adds a separate entry of the source. Where two headings read alike, the source gives them in different places. Some results are limits rather than exact numbers.

T1 sequence (Q9NUW8 whole entry): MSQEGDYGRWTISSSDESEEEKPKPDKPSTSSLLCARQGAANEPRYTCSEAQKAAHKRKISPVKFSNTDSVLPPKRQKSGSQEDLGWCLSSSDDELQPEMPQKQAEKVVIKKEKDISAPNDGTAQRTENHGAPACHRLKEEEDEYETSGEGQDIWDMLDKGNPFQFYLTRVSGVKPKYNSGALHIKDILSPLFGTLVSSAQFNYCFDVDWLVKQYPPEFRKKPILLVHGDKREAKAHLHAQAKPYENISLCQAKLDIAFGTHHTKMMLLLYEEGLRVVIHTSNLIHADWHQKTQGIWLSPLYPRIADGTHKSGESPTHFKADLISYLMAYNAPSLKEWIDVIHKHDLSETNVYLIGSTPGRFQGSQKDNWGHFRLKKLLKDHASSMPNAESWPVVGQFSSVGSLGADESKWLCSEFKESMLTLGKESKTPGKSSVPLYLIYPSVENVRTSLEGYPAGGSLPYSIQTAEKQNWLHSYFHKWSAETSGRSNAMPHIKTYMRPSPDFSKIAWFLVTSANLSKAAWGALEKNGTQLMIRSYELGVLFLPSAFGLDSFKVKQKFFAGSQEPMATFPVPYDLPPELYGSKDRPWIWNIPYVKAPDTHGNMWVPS

Usually IC50 stands for the concentration needed to halve the response being measured. For the compound `CC(=O)C1=C(O)C=C2Oc3c(-c4csc(N/N=C/CC(C)CCC=C(C)C)n4)c(O)c(C)c(O)c3[C@@]2(C)C1=O` (stereo partly shown) [A], the IC50 in data set [1] is 0.0103 ± 0.0004 µM.
`CC(C)=CCC/C(C)=C/COc1ccc2c(-c3ccc(F)cc3)cc(=O)oc2c1` [C]: in data set [1], the half-inhibitory concentration (IC50) was 0.5 µM.
Consider `CC(C)c1ccc2c(c1)CC[C@H]1[C@](C)(CNC(=O)NC34CC5CC(CC(C5)C3)C4)CCC[C@]21C` [Compound 1, N-abieta-8,11,13-trien-18-yl-N’-1-adamantylurea], for which the IC50 in data set [2] turned out to be 0.19 ± 0.03 µM.
In general, melting point refers to the temperature, or range, at which the solid turns liquid. `CC(C)c1ccc2c(c1)CC[C@H]1[C@](C)(CNC(=O)NC3C4CC5CC(C4)CC3C5)CCC[C@]21C` (stereo partly shown) [Compound 2, N-abieta-8,11,13-trien-18-yl-N’-2-adamantylurea] came in with a melting point of 150 °C. The IC50 in data set [2] is 0.8 ± 0.2 µM. Also, in data set [3] (combination with TMZ), the “sensitization of glioma T98G cells to TMZ” value was “most effective”.
In the case of `CC(C)c1ccc2c(c1)CC[C@H]1[C@](C)(CNC(=S)NC34CC5CC(CC(C5)C3)C4)CCC[C@]21C` [Compound 3, N-abieta-8,11,13-trien-18-yl-N’-1-adamantylthiourea], the IC50 in data set [2] was 1.5 ± 0.5 µM.
As to `CC(C)c1ccc2c(c1)CC[C@H]1[C@](C)(CNC(=S)NC3C4CC5CC(C4)CC3C5)CCC[C@]21C` (stereo partly shown) [Compound 4, N-abieta-8,11,13-trien-18-yl-N’-2-adamantylthiourea], the IC50 in data set [2] was determined as 0.67 ± 0.19 µM.
Take `CC(C)c1ccc2c(c1)CC[C@H]1[C@](C)(CNC(N)=O)CCC[C@]21C` [Compound 5, N-abieta-8,11,13-trien-18-ylurea]: in data set [2], the IC50 is over 15 µM and the “IC50 (TDP1)” value is reported as “no activity; also recorded: failed to inhibit TDP1”.
Take `CC(C)c1ccc2c(c1)CC[C@H]1[C@](C)(CNC(=O)C34CC5CC(CC(C5)C3)C4)CCC[C@]21C` [Compound 6, N-abieta-8,11,13-trien-18-yladamantan-1-carboxamide]: in data set [2], the IC50 was determined as 0.94 ± 0.18 µM.
For the compound `CC(C)c1ccc2c(c1)CC[C@H]1[C@](C)(CNC(=O)C3C4CC5CC(C4)CC3C5)CCC[C@]21C` (stereo partly shown) [Compound 7, N-abieta-8,11,13-trien-18-yladamantan-2-carboxamide], the IC50 in data set [2] came out at 1.8 ± 0.4 µM. The “behaviour of stock solution dissolved in cell growth medium” value in data set [4] is “formed visible micelles”.
Take `CC(C)c1ccc2c(c1)CC[C@H]1[C@](C)(CNC(=S)C34CC5CC(CC(C5)C3)C4)CCC[C@]21C` [Compound 8, N-abieta-8,11,13-trien-18-yladamantan-1-carbothioamide]: the IC50 in data set [2] amounted to 2.3 ± 0.8 µM. For the same compound, the “behaviour of stock solution dissolved in cell growth medium” value in data set [4] is listed as “formed visible micelles”.
For `CC(C)c1ccc2c(c1)CC[C@H]1[C@](C)(NC(=O)NC34CC5CC(CC(C5)C3)C4)CCC[C@]21C` [Compound 9, N-1-adamantyl-N’-[(1R,4aS,10aR)-7-isopropyl-1,4a-dimethyl-1,2,3,4,4a,9,10,10a-octahydrophenanthren-1-yl]urea], the IC50 in data set [2] turned out to be 0.57 ± 0.16 µM.
Regarding `CC(C)c1ccc2c(c1)CC[C@H]1[C@](C)(NC(=O)NC3C4CC5CC(C4)CC3C5)CCC[C@]21C` (stereo partly drawn) [Compound 10, N-2-adamantyl-N’-[(1R,4aS,10aR)-7-isopropyl-1,4a-dimethyl-1,2,3,4,4a,9,10,10a-octahydrophenanthren-1-yl]urea], in data set [2], the 50% inhibitory concentration (IC50) was 0.59 ± 0.15 µM.
On to `CC(C)C1=CC2=CC[C@H]3[C@](C)(NC(=O)NC45CC6CC(CC(C6)C4)C5)CCC[C@]3(C)C2CC1` (stereo partly drawn) [Compound 11, N-1-adamantyl-N’-[(1R,4aR,10aR)-7-isopropyl-1,4a-dimethyl-1,2,3,4,4a,4b,5,6,10,10a-decahydrophenanthren-1-yl]urea], for which, in data set [2], the IC50 worked out at 1.7 ± 0.6 µM.
The same measure, in the same setting: in the case of `CC(C)C1=CC2=CC[C@H]3[C@](C)(NC(=O)NC4C5CC6CC(C5)CC4C6)CCC[C@]3(C)C2CC1` (stereo partly drawn) [Compound 12, N-2-adamantyl-N’-[(1R,4aR,10aR)-7-isopropyl-1,4a-dimethyl-1,2,3,4,4a,4b,5,6,10,10a-decahydrophenanthren-1-yl]urea] it was 1.4 ± 0.3 µM.
As for `CC(C)CCCC(C)CCOC(=O)C12CC3CC(CC(C3)C1)C2` (stereo not shown) [E], the IC50 in data set [1] was 0.92 µM.
In the case of `Cn1nnc2c(C(N)=O)ncn2c1=O` [TMZ, temozolomide], the “cells surviving the treatment” value in data set [3] (TMZ alone 1000 µM, 72 h, MTT) is ~ 95%. Also, in data set [3] (TMZ alone 2000 µM, 72 h, MTT), the “inhibition of cell viability” value is listed as ~ 40%.
